Results published in US5482931A, “Stabilized pharmaceutical peptide compositions” (Ferring AB, priority 1993, dated 1996).

Tests used:
[1] = Adsorption of 125I-marked desmopressin to tubes of polystyrene, polypropene and glass; assay type: physicochemical; details: 24 h, ambient temperature
Experimental: Sterile aqueou solutions of desmopressin marked with ^125 I (appr. 10,000 CPM/ml) containing benzalkonium chloride+saline, chlorobutanol+saline, or saline only, were all incubated in tubes of polystyrene, polypropene and glass for 24 h at ambient temperature.

[2] = aqueous solution of desmopressin; cited from earlier work

## NC(=O)CC[C@@H]1NC(=O)[C@H](Cc2ccccc2)NC(=O)[C@H](Cc2ccc(O)cc2)NC(=O)CCSSC[C@@H](C(=O)N2CCC[C@H]2C(=O)N[C@H](CCCN=C(N)N)C(=O)NCC(N)=O)NC(=O)[C@H](CC(N)=O)NC1=O [desmopressin, 1-deamino-8-D-arginine vasopressin]
[1]; preservative-free solution (saline only), plastic tubes
  amount of desmopressin recovered from the plastic tubes: about half
[1]; solution containing benzalkonium chloride + saline
  adsorption of desmopressin to tubes: insignificant adsorption
[1]; solution containing chlorobutanol + saline
  adsorption of desmopressin to tubes: insignificant adsorption
[2]
  storage temperature required for the aqueous solution: ≤ 8 °C
